Patent US11484511B2, “Pharmaceutical composition comprising THA as effective ingredient for treatment of prostate cancer” (KOREA UNITED PHARM. INC., priority 2018, dated 2022)
“Also recorded” adds a separate entry of the source.

How the values were obtained:
Assay type in all cases: cell-based
PC3 cells [1] = test: Cleaved caspase-3 (CC3) expression by immunochemical analysis; conditions: for induction of apoptosis: 30 μM THA or 5 nM BI2536, 48 hours
Protocol: (§1) Sodium dodecyl sulfate-polyacrylamide gel electrophoresis (SDS-PAGE) was performed using a gel electrophoresis apparatus (Mighty Small SE250, Hoefer Scientific Instruments, San Francisco). After a cell lysate fraction was diluted in a sample dilution buffer solution [63 mM Tris (pH 6.8), 10% glycerol, 2% SDS, 0.0013% bromophenol blue, and 5% β-mercaptoethanol], electrophoresis was performed in an electrode buffer solution (15 g of Tris, 72 g of glycerin, and 5 g of SDS were contained in a 1 L solution) using 8 to 12% gel. Proteins were electrophoretically transferred from the gel to a nitrocellulose membrane at 190 mAmps for 70 minutes in a transfer buffer solution (25 mM Tris, 192 mM glycerin, and 20% v/v methanol (pH 8.3)) using a transfer electrophoresis apparatus. After a primary antibody was reacted with the nitrocellulose membrane, a secondary antibody was reacted with horseradish peroxidase-conjugated goat anti-rabbit IgG and horseradish peroxidase-conjugated goat anti-mouse IgG for 6 hours, and color was developed using an ECL chemiluminescence system (Amersham, Gaithersberg, Mass.).
(§2) Further, the degree of apoptosis was observed by confirming the changes in expression of cleaved caspase-3 (CC3) which is an active-type caspase-3 during apoptosis, and first, the C4-2 and PC3 cells cultured by the method in Example 1-2 were plated onto a 6-well plate, and then cultured during 12 hr. And then the cells were treated with 30 μM THA or 5 nM BI2536 for 48 hours. Thereafter, the changes in expression of cleaved caspase-3 (CC3) were observed by the immunochemical analysis method in Example 1-3.

C4-2 cells [2] = test: as above; conditions: for induction of apoptosis: 30 μM THA or 5 nM BI2536, 48 hours
Protocol: as §1, §2

PC3 cells [3] = test: Cell cycle analysis (PI / PHH3 flow cytometry); conditions: 30 μM THA, 5 nM BI2536, 24 hours
Protocol: In order to measure the cell cycle distribution, cells were plated onto a 100 mm dish (5×10^5 cells/well). The cells were fixed with 4° C. PBS, refrigerated in 70% EtOH at 4° C., and cultured for 24 hours. After the 70% EtOH was removed, the PHH3 antibody was treated with a lysing solution composed of 1% bovine serum albumin/0.5% Triton X-100/0.2 mg/ml EDTA to a final concentration of 1:50, and then stained at 37° C. for 15 minutes. Thereafter, the lysing solution was removed, and staining was performed again at 37° C. for 15 minutes using propidium iodide (PI)/Triton X-100/DNAse-free RNAse A. Next, 20,000 cells per experimental group were analyzed using the FACSCALIBUR™ (flow cytometer from BD Biosciences, CA, USA) machine.
PLK1 is a representative G2/M cell cycle regulatory […], and in order to confirm the effect of blocking the cell cycle of prostate cancer cells according to the treatment with THA, the PC3 cells cultured by the method in Example 1-2 were plated onto a 6-well plate, and then 12 hours later, the cells were treated with 30 μM THA and 5 nM BI2536 for 24 hours. Thereafter, changes in the cell distribution of each of the sub-G1, S, and G2/M phases and the proportion of PH3-positive cells (M phase marker) were observed by the method in Example 1-6.

PC3 cells [4] = test: Real-time cell proliferation analysis (INCUCYTE ZOOM); conditions: THA 3, 10, 30 μM, BI2536 1-100 nM, PPG 3-100 μM, 68 hours
Protocol: (§3) LnCaP cells, PC3 cells which are androgen receptor (AR)-negative cells, and C4-2 cells showing castration resistance were cultured using an RPMI-1640 medium (Hyclone, Logan, Utah, USA) containing 10% fetal bovine serum (FBS) (Hyclone, Logan, Utah, USA) and 1% penicillin/streptomycin.
(§4) In order to measure cell proliferation, cells were plated onto a 96-well dish (5×10^3 cells/well). After treatment with a drug, the number of live cells was measured at 4-hour intervals using an INCUCYTE™ ZOOM Live Cell Analysis System (Essen Bioscience, Ann Arbor, Mich., USA).
(§5) In order to comparatively observe the cell proliferation inhibitory effects after treatment of prostate cancer cells with THA, a 1 M solution was prepared by diluting 0.168 g of THA (molecular weight: 168.15) with 1 ml DMSO. After the prostate cancer cell lines (LnCaP, PC3, and C4-2) cultured by the method in Example 1-2 were treated with THA (3, 10, and 30 μM), PLK1 inhibitor BI2536 (1, 5, 10, 50, and 100 nM), and purpurogallin (PPG) (3, 10, 30, and 100 μM), the cell proliferation inhibitory effects were comparatively observed by the real-time cell proliferation analysis method for 68 hours according to Example 1-4 during.

C4-2 cells [5] = test: as above; conditions: THA 3, 10, 30 μM, BI2536 1-100 nM, PPG 3-100 μM, 68 hours
Protocol: as §3, §4, §5

LnCaP cells = test: as above; conditions: PPG 3-100 μM, 68 hours
Protocol: as §3, §4, §5

PC3 cells [6] = test: Real-time apoptosis analysis (caspase-3/7 fluorescence substrate); conditions: 30 μM THA, 48 hours
Protocol: (§6) In order to measure apoptosis, cells were plated onto a 96-well dish (5×10^3 cells/well). The INCUCYTE™ ZOOM 96-well Caspase-3/7 apoptosis assay reagent (Essen Bioscience, Ann Arbor, Mich., USA) was pretreated for 3 hours, a drug was treated, and then the fluorescence expression level was measured at 4-hour intervals using an INCUCYTE™ ZOOM Live Cell Analysis System (Essen Bioscience, Ann Arbor, Mich., USA).

C4-2 cells [7] = test: as above; conditions: 30 μM THA, 48 hours
Protocol: as §6

SMILES | induction of apoptosis (PC3 cells [1]) | induction of apoptosis (C4-2 cells [2]) | PHH3-positive cells (M phase marker) compared to the control (PC3 cells [3]) | cell cycle progression (PC3 cells [3]) | cell proliferation inhibitory effect (PC3 cells [4]) | cell proliferation inhibitory effect (C4-2 cells [5]) | cell proliferation inhibitory activity (LnCaP cells) | expression level of cleaved caspase-3 (PC3 cells [1]; 30 μM THA, 48 hours) | expression level of cleaved caspase-3 (C4-2 cells [2]; 30 μM THA, 48 hours) | apoptotic index (caspase-3/7 activity) (PC3 cells [6]) | apoptotic index (caspase-3/7 activity) (C4-2 cells [7])
CC[C@@H]1C(=O)N(C)c2cnc(Nc3ccc(C(=O)NC4CCN(C)CC4)cc3OC)nc2N1C1CCCC1 [BI2536, reference compound] | apoptosis is effectively induced | apoptosis is effectively induced | a significant increase | inhibition of G2/M phase progression is induced | selectively inhibits cell proliferation | selectively inhibits cell proliferation | – | – | – | – | –
O=c1c(O)cccc2cc(O)c(O)c(O)c12 [Purpurogallin, purpurogallin, reference compound] | – | – | – | – | limited cell proliferation inhibitory activity | a cell growth inhibitory effect that appeared to be non-selective only at a concentration of 100 uM | limited cell proliferation inhibitory activity | – | – | – | –
CC(=O)c1c(O)cc(O)cc1O [THA, 2,4,6-trihydroxyacetophenone] | apoptosis is effectively induced | apoptosis is effectively induced | a significant increase | selectively blocked cell cycle progression at the G2/M phase | the same cell proliferation inhibitory effects as BI2536; also recorded: selectively inhibits cell proliferation | the same cell proliferation inhibitory effects as BI2536; also recorded: selectively inhibits cell proliferation | – | increased | increased | significantly increased the apoptotic index | significantly increased the apoptotic index
